# Legend:
# Decitabine = compound: Nc1ncn([C@H]2C[C@H](O)[C@@H](CO)O2)c(=O)n1 [Decitabine]; test: relative viability (nuclei count vs DMSO), 5 days (fraction); higher = more cells survive
# In short: (§1)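 Only plates meeting two conditions passed: control CV below 25% and at least one doubling. Lung cancer cell lines, kept overnight at 37 °C in 1536-well plates, were pinned with five library-drug doses (not always all listed) √10 apart on vehicle-anchored plates and grown 5 days without medium change. A one-step fix, permeabilisation and Hoechst stain preceded 4× imaging and MetaXpress nuclear counting. Viability equals treated-well nuclei divided by vehicle-well nuclei, as the median over plates.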
# Cediranib = compound: COc1cc2c(Oc3ccc4[nH]c(C)cc4c3F)ncnc2cc1OCCCN1CCCC1 [Cediranib]; test: as above
# In short: as §1
Cell Line,relative viability (Decitabine; 0.04 µM),relative viability (Decitabine; 0.1265 µM),relative viability (Decitabine; 0.4 µM),relative viability (Decitabine; 1.265 µM),"relative viability (Decitabine; 2 µM, anchor plate)",relative viability (Decitabine; 4 µM),relative viability (Cediranib; 0.04 µM),relative viability (Cediranib; 0.1265 µM),relative viability (Cediranib; 0.4 µM),relative viability (Cediranib; 1.265 µM),relative viability (Cediranib; 4 µM)
NCI-H727,0.733,0.658,0.662,0.579,0.903,0.553,0.631,0.824,0.906,0.935,0.989
NCI-H358,0.65,0.456,0.407,0.285,0.229,0.224,0.945,1.13,0.893,0.9,0.899
NCI-H1437,0.744,0.73,0.542,0.424,0.557,0.425,1.08,0.969,0.998,0.972,1.06
NCI-H441,0.406,0.381,0.274,0.229,0.25,0.238,1.04,0.985,0.884,1.03,1.09
EMC-BAC-2,,1.04,0.817,0.726,0.976,0.685,0.957,0.753,0.913,0.933,1.09
NCI-H647,0.732,0.817,0.451,0.249,0.403,0.233,1.06,0.911,0.831,0.895,1.01
CAL-12T,0.726,0.843,0.502,0.548,,0.461,1,0.974,0.937,1.01,1.01
NCI-H1792,0.802,0.857,0.889,0.534,0.526,0.507,0.862,0.846,0.84,0.931,0.795
H3255,0.636,0.857,0.702,0.668,0.657,0.666,1.1,0.859,0.964,0.938,0.986
HCC-78,0.877,0.816,0.673,0.541,0.706,0.47,0.963,1.05,0.965,1.03,1
EBC-1,0.626,0.456,0.313,0.272,,0.246,0.999,0.946,0.971,1.01,1.19
NCI-H2405,0.898,0.903,0.758,0.596,0.745,0.49,0.999,0.914,0.994,1,1.02
A549,0.858,0.724,0.554,0.174,0.265,0.159,0.929,0.953,0.889,0.897,0.996
NCI-H3122,0.964,0.964,0.624,0.473,0.471,0.647,1.09,0.765,0.977,1,1.01
NCI-H1563,1.07,1.04,1.43,0.986,,1.03,0.97,1.39,1.03,0.961,1.13
HCC-44,0.924,0.985,0.348,0.545,0.938,0.639,0.996,,0.945,0.959,0.983
